Each structure is given as a SMILES string.

The values that follow come from patent US8114991B2, “Amino-1,3,5-triazines N-substituted with chiral bicyclic radicals, process for their preparation, compositions thereof, and their use as herbicides and plant growth regulators” (Bayer Cropscience AG, priority 2003, dated 2012).

Data set [1] concerns harmful plants such as Stellaria media, Lolium multiforum, Amaranthus retroflexus, Sinapis alba, Avena sativa and Setaria viridis. In words: Pre-emergence effect on weeds (greenhouse pot test). To be noted: application rate of 1 kg or less of active ingredient per hectare; scored after 3 to 4 weeks by comparison with untreated controls. The class given is in vivo. Put shortly: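 Seeds or rhizome pieces sown in sandy loam; test compounds (wettable powder or emulsion concentrate) applied pre-emergence to soil surface as aqueous suspension/emulsion at various dosages, 600 to 800 l water/ha. Greenhouse; plant/emergence damage scored visually after 3 to 4 weeks versus untreated controls.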

The test system of data set [2] is harmful plants such as Sinapis alba, Echinochloa crus-galli, Lolium multiflorum, Stellaria media, Cyperus iria, Amaranthus retroflexus, Setaria viridis, Avena …. As to the kind of experiment: Post-emergence effect on weeds (greenhouse pot test). The class given is in vivo. Particulars: application rate of 2 kg or less of active ingredient per hectare; treated in the three-leaf stage; scored after approx. 3 to 4 weeks by comparison with untreated controls.

For orientation: melting point means the temperature, or range, at which the solid turns liquid. `C[C@@H](F)c1nc(N)nc(N[C@@H]2CCOc3ccccc32)n1` [Compound 1.20, 2-Amino-4-[(4R)4-chromanylamino]-6-[(1R)-1-fluoroethyl]-1,3,5-triazine] returned a melting point of 110 to 112 °C. Also, the “pre-emergence control of harmful plants (plant or emergence damage scored visually)” value (shortened to “pre-emergence control of harmful plants”) in data set [1] is reported as “very good pre-emergence control”. The “herbicidal post-emergence activity against harmful plants (scored visually)” value (“herbicidal post-emergence activity” for short) in data set [2] is listed as “very good herbicidal post-emergence activity”.

Take `C[C@@H](F)c1nc(N)nc(N[C@H]2c3ccccc3C[C@@H]2C)n1` [Compound 2.1, 2-Amino-4-[(1R,2S)-2-methyl-1-indanylamino]-6-[(1R)-1-fluoroethyl]-1,3,5-triazine]: the melting point fell in the range of 146 to 150 °C. In data set [1], the “pre-emergence control of harmful plants” value is on record as “very good pre-emergence control”. Besides, the “herbicidal post-emergence activity” value in data set [2] is given as “very good herbicidal post-emergence activity”.

`Cc1nc(N)nc(N[C@@H]2CCc3ccccc32)n1` [Compound 8.1, 2-Amino-4-[(1R)-1-indanylamino]-6-methyl-1,3,5-triazine] had a melting point of 94 to 96 °C. For the same molecule, in data set [1], the “pre-emergence control of harmful plants” value is reported as “very good pre-emergence control”. The “herbicidal post-emergence activity” value in data set [2] is reported as “very good herbicidal post-emergence activity”.

On to `CCCc1nc(N)nc(N[C@@H]2CCc3ccc(CC)cc32)n1` [Compound 8.249], for which, in data set [1], the “pre-emergence control of harmful plants” value is recorded as “very good pre-emergence control”. For the same molecule, the “herbicidal post-emergence activity” value in data set [2] is recorded as “very good herbicidal post-emergence activity”.

`CCc1ccc2c(c1)[C@H](Nc1nc(N)nc(CCSC(F)(F)F)n1)CC2` [Compound 8.250]: in data set [1], the “pre-emergence control of harmful plants” value is “very good pre-emergence control”. The “herbicidal post-emergence activity” value in data set [2] is reported as “very good herbicidal post-emergence activity”.

With `Cc1ccc2c(c1)[C@H](Nc1nc(N)nc(CCSC(F)(F)F)n1)CCC2` [Compound 8.251], the “pre-emergence control of harmful plants” value in data set [1] is given as “very good pre-emergence control”. The “herbicidal post-emergence activity” value in data set [2] is “very good herbicidal post-emergence activity”.

On to `Cc1cc(C)c2c(c1)[C@H](Nc1nc(N)nc(C(C)C)n1)CCC2` [Compound 8.252], for which the “pre-emergence control of harmful plants” value in data set [1] is on record as “very good pre-emergence control”. Further, in data set [2], the “herbicidal post-emergence activity” value is given as “very good herbicidal post-emergence activity”.

On to `COCc1nc(N)nc(N[C@@H]2CCCc3c(C)cc(C)cc32)n1` [Compound 8.253], for which the “pre-emergence control of harmful plants” value in data set [1] is “very good pre-emergence control”. Besides, the “herbicidal post-emergence activity” value in data set [2] is given as “very good herbicidal post-emergence activity”.

For the molecule `Nc1nc(N[C@@H]2CCCc3ccccc32)nc(C(F)(F)F)n1` [Compound 8.254], the “pre-emergence control of harmful plants” value in data set [1] is on record as “very good pre-emergence control”. In data set [2], the “herbicidal post-emergence activity” value is “very good herbicidal post-emergence activity”.

Take `N#CCc1nc(N)nc(N[C@@H]2CCCc3ccccc32)n1` [Compound 8.255]: the “pre-emergence control of harmful plants” value in data set [1] is “very good pre-emergence control”. Also, the “herbicidal post-emergence activity” value in data set [2] is reported as “very good herbicidal post-emergence activity”.

`Nc1nc(N[C@@H]2CCCc3ccccc32)nc(C(F)F)n1` [Compound 8.256]: the “pre-emergence control of harmful plants” value in data set [1] is listed as “very good pre-emergence control”. In addition, in data set [2], the “herbicidal post-emergence activity” value is “very good herbicidal post-emergence activity”.

Take `CCCCc1nc(N)nc(N[C@@H]2CCCc3ccc(CC)cc32)n1` [Compound 8.257]: in data set [1], the “pre-emergence control of harmful plants” value was “very good pre-emergence control”. For the same molecule, the “herbicidal post-emergence activity” value in data set [2] is “very good herbicidal post-emergence activity”.

In the case of `CCC(F)c1nc(N)nc(N[C@H]2c3cc(C)ccc3C[C@@H]2C)n1` (some centres unmarked) [Compound 9.37], in data set [1], the “pre-emergence control of harmful plants” value is reported as “very good pre-emergence control”. Moreover, the “herbicidal post-emergence activity” value in data set [2] is recorded as “very good herbicidal post-emergence activity”.

Consider `CCCCc1nc(N)nc(N[C@H]2c3cc(C)ccc3C[C@@H]2C)n1` [Compound 9.66], for which the “pre-emergence control of harmful plants” value in data set [1] is “very good pre-emergence control”. Moreover, in data set [2], the “herbicidal post-emergence activity” value is recorded as “very good herbicidal post-emergence activity”.

Consider `Cc1ccc2c(c1)[C@H](Nc1nc(N)nc(C(C)F)n1)CC2` (some centres unmarked) [Compound 10.2], for which the “pre-emergence control of harmful plants” value in data set [1] is “very good pre-emergence control”. Also, the “herbicidal post-emergence activity” value in data set [2] is listed as “very good herbicidal post-emergence activity”.

Turning to `CCC(F)c1nc(N)nc(N[C@@H]2CCc3ccc(C)cc32)n1` (some centres unmarked) [Compound 10.37], the “pre-emergence control of harmful plants” value in data set [1] is “very good pre-emergence control”. In data set [2], the “herbicidal post-emergence activity” value was “very good herbicidal post-emergence activity”.

Take `CCC(F)c1nc(N)nc(N[C@@H]2CCCc3ccc(C)cc32)n1` (some centres unmarked) [Compound 10.47]: the “pre-emergence control of harmful plants” value in data set [1] is reported as “very good pre-emergence control”. Moreover, in data set [2], the “herbicidal post-emergence activity” value is “very good herbicidal post-emergence activity”.

For the molecule `CCC(F)c1nc(N)nc(N[C@@H]2CCOc3ccc(C)cc32)n1` (some centres unmarked) [Compound 10.57], the “pre-emergence control of harmful plants” value in data set [1] was “very good pre-emergence control”. Besides, the “herbicidal post-emergence activity” value in data set [2] is “very good herbicidal post-emergence activity”.

Consider `CCCC(F)c1nc(N)nc(N[C@@H]2CCCc3ccc(C)cc32)n1` (some centres unmarked) [Compound 10.66], for which, in data set [1], the “pre-emergence control of harmful plants” value was “very good pre-emergence control”. Also, the “herbicidal post-emergence activity” value in data set [2] is “very good herbicidal post-emergence activity”.
